Toxic doses and inconclusive results are not listed. Cut-off read from the data, not from the text of the source: active = T/C of 150% or more; inactive = T/C below 125%.
System: L1210 leukemia ip in BDF1 mice, survival T/C
Assay: NCI In Vivo Anticancer Drug Screen. Data for tumor model L1210 Leukemia (intraperitoneal) in B6D2F1 (BDF1) mice
Settings: endpoint: mean survival time, schedule: Q04DX002 (ip), vehicle: saline, higher = longer survival
Procedure, shortened: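 Mice bearing the transplanted tumor received compound or vehicle. Survival of the treated group was divided by that of the vehicle-treated control group to give the ratio.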

Measured: T/C

CCN(CC)Cc1ccccc1COC(=O)c1cccc(C)c1
inactive: dose: 50.0 mg/kg/injection 93 % of control | dose: 100.0 mg/kg/injection 90 % of control | dose: 200.0 mg/kg/injection 93 % of control

Reference: PubChem BioAssay AID248 (DTP/NCI, 2004)
